Source: patent US20200085839A1, “COMBINATION OF IMMUNOTHERAPEUTICS AND BISFLUOROALKYL-1,4-BENZODIAZEPINONE COMPOUNDS FOR TREATING LYMPHOMAS” (Ayala Pharmaceuticals Inc., priority 2018, published 2020)

Assays:
Assay in all cases: Soluble (shed) BCMA by ELISA
Type in all cases: cell-based, human
[1] = tested on: TUR cells (Histiocytic Lymphoma)
Method: (§1) […] cell lines, comprising 9 subtypes of lymphomas (see Table 1), were seeded at 1×10^5 cells/well in a total volume of 250 μl into a 96-well plate. The cells were cultured in RPMI medium supplemented with 10% FCS. Compound (22) was added to the cell cultures at a concentration of 10 μM, 1 μM, 100 nM, 10 nM, 1 nM, 100 pM, 10 pM, 1 pM, and 100 fM, and cell lines (8 from Hadassah Medical Center, 31 from Eurofins) were incubated at 37° C. for 24 hours with Compound (22). Following incubation, the cells were collected and BCMA levels were evaluated on the cell surface for cell-bound BCMA. Cells were stained with an anti-BCMA antibody (PE anti-human 19F2 BCMA, Biolegend), and cell surface BCMA levels were determined by FACS analysis (Mean Fluorescence Intensity. Soluble BCMA levels were analyzed by ELISA (Human BCMA/TNFRSF17 DuoSet kit: R&D Systems).

[2] = tested on: Jiyoye cells (Burkitt's Lymphoma)
Method: as §1

[3] = tested on: L-248 cells (Hodgkin's Lymphoma)
Method: as §1

HT cells (DLBCL) = tested on: HT cells (DLBCL)
Method: as §1

[4] = tested on: BCP-1 cells (B-cell Lymphoma)
Method: as §1

DB cells (DLBCL) = tested on: DB cells (DLBCL)
Method: as §1

[5] = tested on: H9 cells (Cutaneous T-cell Lymphoma)
Method: as §1

[6] = tested on: BC-1 cells (B-cell Lymphoma)
Method: as §1

[7] = tested on: JVM-2 cells (Mantle Cell Lymphoma)
Method: as §1

[8] = tested on: REC-1 cells (Mantle Cell Lymphoma)
Method: as §1

[9] = tested on: U937 cells (Histiocytic Lymphoma)
Method: as §1

[10] = tested on: EB-3 cells (Burkitt's Lymphoma)
Method: as §1

ST486 cells (DLBCL) = tested on: ST486 cells (DLBCL)
Method: as §1

[11] = tested on: GA-10 cells (Burkitt's Lymphoma)
Method: as §1

[12] = tested on: Raji cells (Burkitt's Lymphoma)
Method: as §1

[13] = tested on: MHHH-PREB-1 cells (B-cell Lymphoma)
Method: as §1

SUDHL-8 cells (DLBCL) = tested on: SUDHL-8 cells (DLBCL)
Method: as §1

[14] = tested on: Ramos cells (Burkitt's Lymphoma)
Method: as §1

DOHH-2 cells (DLBCL) = tested on: DOHH-2 cells (DLBCL)
Method: as §1

[15] = tested on: CA46 cells (Burkitt's Lymphoma)
Method: as §1

[16] = tested on: Jeko-1 cells (Mantle Cell Lymphoma)
Method: as §1

[17] = tested on: RPMI-6666 cells (Hodgkin's Lymphoma)
Method: as §1

[18] = tested on: Daudi cells (Burkitt's Lymphoma)
Method: as §1

[19] = Homo sapiens, read-out: Shed BCMA (pg/ml) EC50

Cc1cccc2c1NC(=O)[C@@H](NC(=O)[C@H](CCC(F)(F)F)[C@H](CCC(F)(F)F)C(N)=O)N=C2c1cccc(F)c1 [Compound (22), (2R,3S)—N-((3S)-5-(3-fluorophenyl)-9-methyl-2-oxo-2,3-dihydro-1H-1,4-benzodiazepin-3-yl)-2,3-bis(3,3,3-trifluoropropyl)succinamide]
Shed BCMA (pg/ml) % Reduction [1]: BLQ | EC50 [1, 19]: > 10000 nM | EC50 ([2]; Homo sapiens, JIYOYE, read-out: Shed BCMA (pg/ml) EC50): 2.3 nM | soluble BCMA 10 nM Compound (22) ([2]; JIYOYE, 10 nM, 24 h): 472.3 | Shed BCMA (pg/ml) % Reduction ([2]; Jiyoye): 81% | soluble BCMA 1 nM Compound (22) ([2]; Jiyoye, 1 nM, 24 h): 1707.7 | soluble BCMA 100 nM Compound (22) ([2]; Jiyoye, 100 nM, 24 h): 373.1 | soluble BCMA ([2]; Jiyoye, FIG. 8B): decreased soluble BCMA | Shed BCMA (pg/ml) % Reduction [3]: BLQ | EC50 [3, 19]: > 10000 nM | Shed BCMA (pg/ml) % Reduction (HT cells (DLBCL)): 98% | soluble BCMA 1 nM Compound (22) (HT cells (DLBCL); 1 nM, 24 h): 389.4 | soluble BCMA 10 nM Compound (22) (HT cells (DLBCL); 10 nM, 24 h): 99.4 | soluble BCMA 100 nM Compound (22) (HT cells (DLBCL); 100 nM, 24 h): 38 | EC50 (HT cells (DLBCL); [19]): 1 nM | Shed BCMA (pg/ml) % Reduction [4]: 94% | soluble BCMA 1 nM Compound (22) ([4]; 1 nM, 24 h): 1665.7 | soluble BCMA 10 nM Compound (22) ([4]; 10 nM, 24 h): 1610 pg/mL | soluble BCMA 100 nM Compound (22) ([4]; 100 nM, 24 h): 460.6 | soluble BCMA ([4]; FIG. 6B): decreased soluble BCMA | EC50 [4, 19]: 48 nM | Shed BCMA (pg/ml) % Reduction (DB cells (DLBCL)): 100% | soluble BCMA 1 nM Compound (22) (DB cells (DLBCL); 1 nM, 24 h): 270.5 | soluble BCMA 10 nM Compound (22) (DB cells (DLBCL); 10 nM, 24 h): 40.5 | soluble BCMA (DB cells (DLBCL); FIG. 9B): decreased soluble BCMA | EC50 (DB cells (DLBCL); [19]): 1 nM | Shed BCMA (pg/ml) % Reduction [5]: BLQ | EC50 [5, 19]: > 10000 nM | Shed BCMA (pg/ml) % Reduction [6]: 30% | soluble BCMA 1 nM Compound (22) ([6]; 1 nM, 24 h): >2000 | soluble BCMA 10 nM Compound (22) ([6]; 10 nM, 24 h): 1841.6 | soluble BCMA 100 nM Compound (22) ([6]; 100 nM, 24 h): 878.6 | EC50 ([6]; Homo sapiens, BC1, read-out: Shed BCMA (pg/ml) EC50): 84 nM | Shed BCMA (pg/ml) % Reduction [7]: 57% | EC50 [7, 19]: 75.3 nM | Shed BCMA (pg/ml) % Reduction [8]: BLQ | EC50 ([8]; Homo sapiens, Rec1, read-out: Shed BCMA (pg/ml) EC50): > 10000 nM | Shed BCMA (pg/ml) % Reduction [9]: BLQ | EC50 ([9]; Homo sapiens, U-937, read-out: Shed BCMA (pg/ml) EC50): > 10000 nM | Shed BCMA (pg/ml) % Reduction [10]: BLQ | EC50 [10, 19]: > 10000 nM | Shed BCMA (pg/ml) % Reduction (ST486 cells (DLBCL)): 90% | EC50 (ST486 cells (DLBCL); [19]): 0.9 nM | Shed BCMA (pg/ml) % Reduction [11]: 83% | soluble BCMA 1 nM Compound (22) ([11]; 1 nM, 24 h): >2000 | soluble BCMA 10 nM Compound (22) ([11]; 10 nM, 24 h): 800.8 | soluble BCMA 100 nM Compound (22) ([11]; 100 nM, 24 h): 398.1 | EC50 [11, 19]: 7.4 nM | Shed BCMA (pg/ml) % Reduction [12]: 99% | soluble BCMA 1 nM Compound (22) ([12]; 1 nM, 24 h): 81.4 | soluble BCMA 10 nM Compound (22) ([12]; 10 nM, 24 h): 29.7 | soluble BCMA 100 nM Compound (22) ([12]; 100 nM, 24 h): 26.3 | EC50 [12, 19]: 0.3 nM | Shed BCMA (pg/ml) % Reduction [13]: 97% | soluble BCMA 1 nM Compound (22) ([13]; 1 nM, 24 h): 227.3 | soluble BCMA 10 nM Compound (22) ([13]; 10 nM, 24 h): 75.4 | soluble BCMA 100 nM Compound (22) ([13]; 100 nM, 24 h): 60.1 | EC50 ([13]; Homo sapiens, B-cell, read-out: Shed BCMA (pg/ml) EC50): 0.6 nM | Shed BCMA (pg/ml) % Reduction (SUDHL-8 cells (DLBCL)): 100% | EC50 (SUDHL-8 cells (DLBCL); Homo sapiens, SU-DHL-8, read-out: Shed BCMA (pg/ml) EC50): 0.5 nM | Shed BCMA (pg/ml) % Reduction [14]: 76% | soluble BCMA 1 nM Compound (22) ([14]; 1 nM, 24 h): >2000 | soluble BCMA 10 nM Compound (22) ([14]; 10 nM, 24 h): 613.3 | soluble BCMA 100 nM Compound (22) ([14]; 100 nM, 24 h): 504.3 | EC50 [14, 19]: 8.6 nM | Shed BCMA (pg/ml) % Reduction (DOHH-2 cells (DLBCL)): 93% | soluble BCMA 1 nM Compound (22) (DOHH-2 cells (DLBCL); 1 nM, 24 h): 1272.1 | soluble BCMA 10 nM Compound (22) (DOHH-2 cells (DLBCL); 10 nM, 24 h): 136 | soluble BCMA 100 nM Compound (22) (DOHH-2 cells (DLBCL); 100 nM, 24 h): 98.4 | EC50 (DOHH-2 cells (DLBCL); [19]): 2.2 nM | Shed BCMA (pg/ml) % Reduction ([15]; CA46): 90% | soluble BCMA 1 nM Compound (22) ([15]; CA-46, 1 nM, 24 h): 1775.4 | soluble BCMA 10 nM Compound (22) ([15]; CA-46, 10 nM, 24 h): 330 | soluble BCMA 100 nM Compound (22) ([15]; CA-46, 100 nM, 24 h): 173.2 | EC50 ([15]; Homo sapiens, CA46, read-out: Shed BCMA (pg/ml) EC50): 7.4 nM | EC50 ([16]; Homo sapiens, JeKo-1, read-out: Shed BCMA (pg/ml) EC50): 1.1 nM | soluble BCMA 10 nM Compound (22) ([16]; JEKO-1, 10 nM, 24 h): 338 | Shed BCMA (pg/ml) % Reduction ([16]; Jeko-1): 76% | soluble BCMA 1 nM Compound (22) ([16]; Jeko-1, 1 nM, 24 h): 1245.6 | soluble BCMA 100 nM Compound (22) ([16]; Jeko-1, 100 nM, 24 h): 305.6 | Shed BCMA (pg/ml) % Reduction [17]: 92% | EC50 [17, 19]: 9.1 nM | Shed BCMA (pg/ml) % Reduction [18]: 100% | soluble BCMA 1 nM Compound (22) ([18]; 1 nM, 24 h): 162.6 | soluble BCMA 10 nM Compound (22) ([18]; 10 nM, 24 h): 36.8 | soluble BCMA ([18]; FIG. 7B): decreased soluble BCMA | EC50 [18, 19]: 0.5 nM
